Data reported in ChEMBL document CHEMBL3046563, “Synthesis and antihypertensive activity evaluation in spontaneously hypertensive rats of nitrendipine analogues” (2011).

How the values were obtained:
Assay type in all cases: functional, Artery
Conditions in all cases: route intragastric
Rattus norvegicus [1] = assay: Antihypertensive activity in spontaneously hypertensive Rattus norvegicus (rat) assessed as reduction of systolic blood pressure at 2 mg/kg, ig after 1 hr
Rattus norvegicus [2] = assay: Antihypertensive activity in spontaneously hypertensive Rattus norvegicus (rat) assessed as reduction of systolic blood pressure at 1 mg/kg, ig after 2 hr
Rattus norvegicus [3] = assay: Antihypertensive activity in spontaneously hypertensive rat assessed as reduction of systolic blood pressure at 2 mg/kg, ig after 2 hr
Rattus norvegicus [4] = assay: Antihypertensive activity in spontaneously hypertensive Rattus norvegicus (rat) assessed as reduction of systolic blood pressure at 2 mg/kg, ig after 4 hr
Rattus norvegicus [5] = assay: Antihypertensive activity in spontaneously hypertensive Rattus norvegicus (rat) assessed as reduction of systolic blood pressure at 1 mg/kg, ig after 1 hr
Rattus norvegicus [6] = assay: Antihypertensive activity in spontaneously hypertensive Rattus norvegicus (rat) assessed as reduction of systolic blood pressure at 4 mg/kg, ig after 2 hr
Rattus norvegicus [7] = assay: Antihypertensive activity in spontaneously hypertensive Rattus norvegicus (rat) assessed as reduction of systolic blood pressure at 4 mg/kg, ig after 6 hr
Rattus norvegicus [8] = assay: Antihypertensive activity in spontaneously hypertensive Rattus norvegicus (rat) assessed as reduction of systolic blood pressure at 4 mg/kg, ig after 4 hr
Rattus norvegicus [9] = assay: Antihypertensive activity in spontaneously hypertensive Rattus norvegicus (rat) assessed as reduction of systolic blood pressure at 4 mg/kg, ig after 1 hr
Rattus norvegicus [10] = assay: Antihypertensive activity in spontaneously hypertensive Rattus norvegicus (rat) assessed as reduction of systolic blood pressure at 4 mg/kg, ig after 8 hr

| Structure (SMILES) | Activity (Rattus norvegicus [1]) | Activity (Rattus norvegicus [3]) | Activity (Rattus norvegicus [4]) | also measured |
| --- | --- | --- | --- | --- |
| CCCCCOC(=O)C1=C(C)NC(C)=C(C(=O)OC)C1c1cccc([N+](=O)[O-])c1 (configuration not stated) | 44 mmHg |  |  |  |
| CCCCCCCCOC(=O)C1=C(C)NC(C)=C(C(=O)OC)C1c1cccc([N+](=O)[O-])c1 (configuration not stated) | 38 mmHg |  |  |  |
| CCCOC(=O)C1=C(C)NC(C)=C(C(=O)OC)C1c1cccc([N+](=O)[O-])c1 (configuration not stated) | 43 mmHg |  |  |  |
| CCOC(=O)C1=C(C)NC(C)=C(C(=O)OC)C1c1cccc([N+](=O)[O-])c1 (stereo in doubt; 2) [NITRENDIPINE] |  | 8 mmHg | -2 mmHg | Activity (Rattus norvegicus [2]): 0 mmHg; Activity (Rattus norvegicus [1]; 2 mg/kg): 39 mmHg; Activity (Rattus norvegicus [5]): 33 mmHg |
| CCCCCCCCCCOC(=O)C1=C(C)NC(C)=C(C(=O)OC)C1c1cccc([N+](=O)[O-])c1 (configuration not stated) | 31 mmHg |  |  |  |
| CCCCCCCOC(=O)C1=C(C)NC(C)=C(C(=O)OC)C1c1cccc([N+](=O)[O-])c1 (racemic) | 52 mmHg | 42 mmHg | -4 mmHg | Activity (Rattus norvegicus [6]): 107 mmHg; Activity (Rattus norvegicus [7]): 45 mmHg; Activity (Rattus norvegicus [8]): 67 mmHg; Activity (Rattus norvegicus [9]): 119 mmHg; Activity (Rattus norvegicus [10]): 21 mmHg |
| CCCCCCCOC(=O)C1=C(C)NC(C)=C(C(=O)OC)[C@@H]1c1cccc([N+](=O)[O-])c1 | 93 mmHg | 47 mmHg | -2 mmHg |  |
| CCCCCCCCCCCCOC(=O)C1=C(C)NC(C)=C(C(=O)OC)C1c1cccc([N+](=O)[O-])c1 (configuration not stated) | 17 mmHg |  |  |  |
| CCOC(=O)C1=C(C)NC(C)=C(C(=O)OC)C1c1cccc([N+](=O)[O-])c1 (stereo in doubt; 1) [NITRENDIPINE] |  |  |  | Activity (Rattus norvegicus [1]; 2 mg/kg): 26 mmHg |
